According to patent US10080729B2, “Composition for use in the treatment of intervertebral misalignment” (STAYBLE THERAPEUTICS AB, priority 2015, dated 2018):

Tests used:
pig = assay: Tolerability and injection site observation (Example 1); assay type: in vivo; conditions: two pigs
Description: Two pigs were anesthetized and placed on their right side. Access to the L4-5 intervertebral disc was obtained through a lateral incision between the lowest rib and the iliac crest on the left side of each pig. Thereafter, the L3-4 intervertebral disc was incised with a scalpel.
The composition was injected in a single step at a single occasion.
At harvest, the pigs were killed.
The injection site was observed by the naked eye. […] The segment of the vertebral column extending from the lumbar vertebra L2 to the sacral vertebra S1 was removed. The facet joints were removed, thus allowing full flexibility of the discs with no restraints from other structures.

[1] = tested on: intervertebral disc L1/2 to L3/4; assay: Disc height on post-mortem X-ray (Example 3); assay type: in vivo, pig; conditions: 120 or 240 mg/ml lactic acid + iohexol, 0.2 ml; both doses; 2, 28 and 84 days; FIG. 16
Text: (§1) Eleven pigs were anesthetized and placed on their right side. Through a lateral incision the discs to be injected were exposed. […] After 2, 28 or 84 days the pigs were killed and the lumbar spine was harvested. All musculature was removed as well as the facet joints and ligamentum flavum between the L1/2, L2/3 and L3/4 vertebrae. The following endpoints were used: • A. X-ray pictures were taken at the day of injection and at the harvest day to ascertain that the injection was correctly placed and to determine if the discs were radio-opaque after 2, 28 and 84 days. • B. The X-rays taken post-mortem were used to measure disc height. • C. The sectioned discs were photographed and the degree of fibrotisation was visually evaluated.

[2] = tested on: nucleus pulposus of the L3-4 intervertebral disc; assay: Dimension of the disc space after administration (Example 1); assay type: in vivo, pig; conditions: injected disc L 3-4; 0.2 mL of 1.34 mol/L lactic acid; seven days after injection; mean ± SD
Description: 110. performing a cross-section of the discs and measuring the length (anterio-posterior direction) and the width (bilateral direction) of the disc space. Two pigs were anesthetized and placed on their right side. Access to the L4-5 intervertebral disc was obtained through a lateral incision between the lowest rib and the iliac crest on the left side of each pig. Thereafter, the L3-4 intervertebral disc was incised with a scalpel. […] The composition was injected in a single step at a single occasion. The intervertebral discs (L2-3, L3-4, L4-5) were cross-sectioned and the length of the disc space (anterio-posterior direction) and the width (bilateral direction) of the disc space were measured by calipers. In FIGS. 5 and 6, an intervertebral disc is schematically shown in cross-section. The intervertebral disc comprises the annulus fibrosus 10, and a disc space defined by the annulus fibrosus and comprising the nucleus pulposus 11.

[3] = tested on: intervertebral disc L1/2 to L3/4; assay: Visual evaluation of fibrotisation of the nucleus space (Example 3); assay type: in vivo, pig
Text: as §1

[4] = tested on: nucleus pulposus of the L3-4 intervertebral disc; assay: Flexion stiffness of the injected intervertebral disc (Example 1); assay type: in vivo, pig; conditions: injected disc L 3-4; 0.2 mL of 1.34 mol/L lactic acid into nucleus pulposus; seven days after injection; mean ± SD; two pigs
Description: Access to the L4-5 intervertebral disc was obtained through a lateral incision between the lowest rib and the iliac crest on the left side of each pig. Thereafter, the L3-4 intervertebral disc was incised with a scalpel. […] The composition was injected in a single step at a single occasion.

## CC(O)C(=O)O (stereo not drawn) [lactic acid]
pig; 0.2 mL of 1.34 mol/L lactic acid intradiscal, period of seven days until harvest
  Adverse reaction such as decreased mobility or vocalization: no adverse reaction
pig; at harvest seven days after injection
  Adverse reaction at the injection site (bleedings, inflammation or necrosis), naked eye: No adverse reaction at the injection site
[1]
  Disc height, discs injected with lactic acid versus placebo (X-ray): no difference in height
[2]
  Average antero-posterior length of the disc space: 13.5 ± 1.3 mm
  Average bilateral width of the disc space: 4.0 ± 1.4 mm
[3]; 84 days after injection, some discs, FIG. 17a
  Fibrotisation of the nucleus space: fibrosis was close to complete
[3]; after 2 days, 120 or 240 mg/ml lactic acid, 0.2 ml, some discs
  Fibrotisation of the nucleus space: tendency to fibrotisation
[3]; after 28 days, 120 or 240 mg/ml lactic acid, 0.2 ml
  Fibrotisation of the nucleus space: fibrotisation was evident
[4]
  Difference in distance between transverse processes before and upon full lateral flexion: 0.3 ± 0.6 mm
